Results reported in ChEMBL document CHEMBL1201862, “PubChem BioAssay data set” (2004).
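Protocol summary: plate cells (96-well), add compound at 5 concentrations, incubate 48 h, interpolate endpoints linearly. GI50 is the concentration that inhibits growth by half.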 The source made the active and inactive calls. No stated cut-off is given here; in the data, active = GI50 up to about 1.1 µM and inactive = higher.

What was measured:
Experiment in all cases: NCI-60 cell line screen, 48 h
[1] = test system: HL-60
[2] = test system: A549
[3] = test system: UACC-257
[4] = test system: Hs-578T
[5] = test system: DU-145
[6] = test system: HCC 2998
[7] = test system: A498
[8] = test system: HCT-15
[9] = test system: CAKI-1
[10] = test system: M14
[11] = test system: OVCAR-4
[12] = test system: MDA-MB-435
[13] = test system: OVCAR-5
[14] = test system: 786-0
[15] = test system: SK-OV-3
[16] = test system: U-251
[17] = test system: SNB-75
[18] = test system: EKVX
[19] = test system: SK-MEL-2
[20] = test system: PC-3

Compound	GI50 [1]	GI50 [2]	GI50 [3]	GI50 [4]	GI50 [5]	GI50 [6]	GI50 [7]	GI50 [8] [µM]	GI50 [9]	GI50 [10]	GI50 [11]	GI50 [12]	GI50 [13]	GI50 [14]	GI50 [15]	GI50 [16]	GI50 [17]	GI50 [18]	GI50 [19]	GI50 [20]
COc1c(C(CC(C)C)OC(C)=O)ccc2c1C(=O)OCc1cc(C)cc(O)c1O2 (stereo not given)	> 100 µM (inactive)	12.4 µM (inactive)	8.47 µM (inactive)	22.1 µM (inactive)	12.5 µM (inactive)	12.8 µM (inactive)	20.3 µM (inactive)	10.1	16.1 µM (inactive)	16.7 µM (inactive)	13.9 µM (inactive)	13.7 µM (inactive)	15.1 µM (inactive)	15.5 µM (inactive)	15.8 µM (inactive)	14.9 µM (inactive)	19.2 µM (inactive)	11.8 µM (inactive)	19.1 µM (inactive)	9.73 µM (inactive)
N#Cc1c(-c2ccc(Cl)cc2)c(-c2ccc(Cl)cc2)nn(CCOC(=O)CCC(=O)O)c1=O	0.339 µM (active)	1.31 µM (inactive)	9.64 µM (inactive)	1.38 µM (inactive)	0.615 µM (active)	0.618 µM (active)	0.652 µM (active)	0.532	1.83 µM (inactive)	0.399 µM (active)	1.45 µM (inactive)	0.0773 µM (active)	1.27 µM (inactive)	0.755 µM (active)	0.778 µM (active)	0.505 µM (active)	0.193 µM (active)	2.69 µM (inactive)	0.221 µM (active)	0.423 µM (active)
CC(N1CCOCC1)C(O)(c1ccccc1)c1ccccn1 (stereo not given)	44.9 µM (inactive)	> 100 µM (inactive)	> 100 µM (inactive)	> 100 µM (inactive)	> 100 µM (inactive)	0.0192 µM (active)	38.8 µM (inactive)	> 100	> 100 µM (inactive)	> 100 µM (inactive)	> 100 µM (inactive)	> 100 µM (inactive)	> 100 µM (inactive)	> 100 µM (inactive)	> 100 µM (inactive)	> 100 µM (inactive)	> 100 µM (inactive)	> 100 µM (inactive)	> 100 µM (inactive)	> 100 µM (inactive)
CC(C)COC(=O)OC(=O)c1ccc(N(C)Cc2cnc3nc(N)nc(N)c3n2)cc1	8.34 µM (inactive)	5.61 µM (inactive)	47.3 µM (inactive)	> 100 µM (inactive)	53.7 µM (inactive)	> 100 µM (inactive)	> 40.4 µM (inactive)	1.75	> 32.1 µM (inactive)	9.44 µM (inactive)	> 100 µM (inactive)	> 100 µM (inactive)	> 100 µM (inactive)	5.37 µM (inactive)	> 100 µM (inactive)	> 29.7 µM (inactive)	> 38.2 µM (inactive)	> 52.7 µM (inactive)	> 100 µM (inactive)	2.47 µM (inactive)
CN1C(=O)C(C(N)=O)C2CC1(C)Oc1ccccc12 (stereo not given)	> 100 µM (inactive)	> 100 µM (inactive)	> 100 µM (inactive)	> 100 µM (inactive)	> 100 µM (inactive)	> 100 µM (inactive)	> 100 µM (inactive)	> 100	> 100 µM (inactive)	> 100 µM (inactive)	> 100 µM (inactive)	> 100 µM (inactive)	> 100 µM (inactive)	> 100 µM (inactive)	> 100 µM (inactive)	> 100 µM (inactive)	> 100 µM (inactive)	> 100 µM (inactive)	> 100 µM (inactive)	> 100 µM (inactive)
CCOC(=O)/C(=C\c1ccc(N(C)C)cc1)S(=O)(=O)C(F)(F)C(F)(F)C(F)(F)C(F)(F)F	> 100 µM (inactive)	> 100 µM (inactive)	> 100 µM (inactive)	> 100 µM (inactive)	> 100 µM (inactive)	> 100 µM (inactive)	> 100 µM (inactive)	> 100	> 100 µM (inactive)	> 100 µM (inactive)	> 100 µM (inactive)	> 100 µM (inactive)	> 100 µM (inactive)	> 100 µM (inactive)	> 100 µM (inactive)	> 100 µM (inactive)	> 100 µM (inactive)	> 100 µM (inactive)	> 100 µM (inactive)	> 100 µM (inactive)
CCCCCCCCCC1CC(=O)NCC(=O)NC(C(C)C)C(=O)NC(CC(C)C)C(=O)NC(C)C(=O)NC(C(C)C)C(=O)O1 (stereo not given)	56.1 µM (inactive)	17.2 µM (inactive)	38.8 µM (inactive)	18 µM (inactive)	21.9 µM (inactive)	> 42.7 µM (inactive)	1.36 µM (inactive)	> 100	> 100 µM (inactive)	20.2 µM (inactive)	4.76 µM (inactive)	10.4 µM (inactive)	38.4 µM (inactive)	12.2 µM (inactive)	16.6 µM (inactive)	12.8 µM (inactive)	12.3 µM (inactive)	21.5 µM (inactive)	25.2 µM (inactive)	6.9 µM (inactive)
S=C1SCN(Cc2ccco2)CN1c1ccc(Br)cc1	13.2 µM (inactive)	18.5 µM (inactive)	15.6 µM (inactive)	24.8 µM (inactive)	26.2 µM (inactive)	14.5 µM (inactive)	20 µM (inactive)	8.69	14.8 µM (inactive)	13.8 µM (inactive)	13.9 µM (inactive)	14.6 µM (inactive)	16.8 µM (inactive)	17.1 µM (inactive)	25.1 µM (inactive)	21.9 µM (inactive)	37.8 µM (inactive)	18.7 µM (inactive)	13.6 µM (inactive)	16.7 µM (inactive)
CC(CN(C)C)C(C#N)(c1ccccc1)c1ccccc1 (stereo not given)	> 100 µM (inactive)	> 100 µM (inactive)	> 100 µM (inactive)	> 100 µM (inactive)	> 100 µM (inactive)	43.8 µM (inactive)	> 100 µM (inactive)	> 100	> 100 µM (inactive)	> 100 µM (inactive)	> 100 µM (inactive)	> 100 µM (inactive)	> 100 µM (inactive)	> 100 µM (inactive)	> 100 µM (inactive)	> 100 µM (inactive)	> 100 µM (inactive)	> 100 µM (inactive)	> 100 µM (inactive)	47.6 µM (inactive)
CCOC(=O)/C=C(/C=C\COC1CCCCO1)c1ccccc1 (stereo not given)	18.3 µM (inactive)	38.4 µM (inactive)	56.1 µM (inactive)	22.3 µM (inactive)	40 µM (inactive)	> 100 µM (inactive)	> 100 µM (inactive)	27.4	33.7 µM (inactive)	38.6 µM (inactive)	31.5 µM (inactive)	25.2 µM (inactive)	96.2 µM (inactive)	24.7 µM (inactive)	33.6 µM (inactive)	26.1 µM (inactive)	23.4 µM (inactive)	43.3 µM (inactive)	55.2 µM (inactive)	35.6 µM (inactive)
CC1=C(Cl)C[C@@H](/C(C)=C\Cl)O[C@@]1(O)C(Br)Br	6.92 µM (inactive)	22 µM (inactive)	35.3 µM (inactive)	45.5 µM (inactive)	19.9 µM (inactive)	33.3 µM (inactive)	31.1 µM (inactive)	16.8	18.5 µM (inactive)	22.5 µM (inactive)	43 µM (inactive)	31.6 µM (inactive)	19.2 µM (inactive)	33.7 µM (inactive)	> 100 µM (inactive)	32.8 µM (inactive)	55.6 µM (inactive)	26.5 µM (inactive)	28.4 µM (inactive)	60.5 µM (inactive)
CN1CSC(=S)N(c2c3ccccc3nc3ccc(Br)cc23)C1	11.1 µM (inactive)	6.22 µM (inactive)	12.1 µM (inactive)	17.8 µM (inactive)	8.09 µM (inactive)	2.79 µM (inactive)	13.6 µM (inactive)	6.4	5.41 µM (inactive)	13.1 µM (inactive)	7.11 µM (inactive)	8.67 µM (inactive)	13.7 µM (inactive)	4.7 µM (inactive)	12.9 µM (inactive)	7.13 µM (inactive)	8.99 µM (inactive)	12.9 µM (inactive)	13 µM (inactive)	8.77 µM (inactive)
COc1ccc(C(O)CC(O)(C(F)(F)F)C(F)(F)F)cc1 (stereo not given)	18.7 µM (inactive)	21.5 µM (inactive)	19.1 µM (inactive)	16.3 µM (inactive)	47 µM (inactive)	38 µM (inactive)	21.9 µM (inactive)	34.8	15 µM (inactive)	32.8 µM (inactive)	32.6 µM (inactive)	31.9 µM (inactive)	27.5 µM (inactive)	32.4 µM (inactive)	54.1 µM (inactive)	37.4 µM (inactive)	1.7 µM (inactive)	31.3 µM (inactive)	17.6 µM (inactive)	11 µM (inactive)
NC1c2c(Cl)sc(Cl)c2C(=O)C1O (stereo not given)	15.4 µM (inactive)	> 100 µM (inactive)	43.4 µM (inactive)	35.1 µM (inactive)	> 100 µM (inactive)	17 µM (inactive)	> 100 µM (inactive)	16.5	24.4 µM (inactive)	32.3 µM (inactive)	17.2 µM (inactive)	42.2 µM (inactive)	> 100 µM (inactive)	94.6 µM (inactive)	> 100 µM (inactive)	21.2 µM (inactive)	33.6 µM (inactive)	21.6 µM (inactive)	73.8 µM (inactive)	> 100 µM (inactive)
